{"source": "patent US8916535B2", "about": "“Use of 2′,5′-oligoadenylate derivative compounds” (Protea Biopharma N.V., priority 2010, dated 2014)", "key": {"XMRV": {"system": "XMRV", "experiment": "XMRV-replication in acutely infected CD4+ T lymphocytes from healthy individuals (ELISA of culture supernatants)", "type": "cell-based", "settings": "freshly isolated CD4+ T cells treated with 10, 100 and 1000 nM then infected with XMRV; 96 h post-infection; compared to untreated controls", "procedure": "First, the activity of 2-5A^N1B on XMRV-replication is tested in CD4^+ T lymphocytes purified from healthy individuals. To determine the effective dose of 2-5A^N1B during acute XMRV infection, freshly isolated CD4^+ T cells are treated with three concentrations of 2-5A^N1B (10, 100 and 1000 nM) and then infected with XMRV. XMRV-replication is assessed in culture supernatants by ELISA."}, "wild-type XMRV": {"system": "wild-type XMRV", "experiment": "XMRV replication in chronically infected CD4+ cells derived from XMRV-positive individuals (ELISA of supernatants)", "type": "cell-based", "settings": "purified CD4+ T lymphocytes from XMRV-positive adults; in vitro; compared to untreated cells", "procedure": "Secondly, the activity of 2-5A^N1B is tested on chronically infected cells derived from XMRV-positive individuals. XMRV-positive adults are recruited from the clinic. The antiviral response to 2-5A^N1B in vitro is assessed by ELISA in the supernatants of cultured CD4+ cells."}}}
{"substance": "N^1-benzyl-3′-deoxyadenylyl-(2′-5′)-3′-deoxyadenylyl-(2′-5′)-3′-deoxyadenylyl-(2′-2″)—N^9-[(2″-hydroxy-ethoxy)-methyl]-adenine [2-5A^N1B]", "values": [{"measurement": "XMRV-replication", "setting": "XMRV", "result": "significant decrease"}, {"measurement": "replication of wild-type XMRV", "setting": "wild-type XMRV", "result": "significantly inhibits"}]}
